Assay results taken from patent US4643990A, “N-acyl peptide, processes for their preparation and pharmaceutical compositions thereof” (Fujisawa Pharmaceutical Co., Ltd., priority 1982, dated 1987).

Legend:
[1] = system: complement serum (guinea pig complement); assay: Anticomplementary activity (inhibition of complement hemolysis of sensitized erythrocytes); format: biochemical; details: concentration inhibiting hemolysis of sensitized erythrocytes by 50%, 37° C., OD541
Description: The anticomplementary activity of the test compound was measured according to the test method as described in Experimental Immunochemistry, edited by E. A. Kabat and M. M. Mayer, 2nd ed., Springfield, III: C. C. Thomas (1961) pages 133-240.
A mixture of 1 ml of a 5-fold diluted solution of a Veronal buffer solution containing 1.5×10^-4 M Ca^2+ and 5×10^-4 M Mg^2+ and isotonic gelatin, 1.5 ml of complement serum (guinea pig complement) diluted 400 times with a physiological saline solution and 0.05 ml of a solution of a test compound (in this case, a test compound was dissolved in a physiological saline solution) was incubated at 37° C. for 30 minutes. To the said mixture there was added 0.4 ml of sensitized erythrocytes suspension containing 5×10^8 cells/ml and said mixture was incubated at 37° C. further for 60 minutes. After the incubation, the mixture was centrifuged in 3,000 rpm at 4° C. for 10 minutes.
The results are expressed in Table 1 as the concentration of each drugs inhibiting the hemolysis activity by 50% (IC50).

[2] = system: blood clot from diluted fresh rabbit blood (urokinase, bovine thrombin); assay: Fibrinolytic activity (modified diluted whole blood clot lysis time method); format: biochemical; details: test compound 300 μg/ml; time for complete lysis of diluted rabbit blood clot with urokinase, 37° C.
Description: The enhancement of the fibrinolytic activity of the test compounds was measured according to the modified diluted whole blood clot lysis time method described in
G. R. Fearnley, G. V. Balmforth, E. Fearnley: Clin. Sci. 16, 645-650 (1957) I. S. Chohan et al: Thrombos. Diathes. Haemorrh. 33, 226 (1975) and I. M. Nilsson et al: Handbook of Experimental Pharmacology 46, 110.
Fresh rabbit blood was diluted 20 times with 1/15M phosphate buffer (pH 7.4). A mixture of 400 μl of the diluted blood solution and 50 μl of a test compound (300 μg/ml) was incubated at 37° C. for 30 minutes. To the mixture were added 50 μl of urokinase solution (100 IU/ml) and 50 μl of bovine thrombin (100 N.I.H. u/ml). The clot produced in tubes was incubated at 37° C. for various periods of time. At the end of each incubation interval (15 minutes interval), 2.5 ml of distilled water was added to lyse erythrocytes released from clotted blood and absorbance (OD541) of the supernatant separated by centrifugation (3,000 rpm for 10 minutes) from the reaction mixture was measured. The fibrinolytic activity of the test compound was determined by the time in minutes needed for the complete lysis of the blood clot.
In the absence of a test compound, it took more than 2 hours to lyse blood clot in the above condition. However, blood clot was lysed in the presence of test compounds after 15 minutes (symbol: ++) and 45 minutes (symbol: +) incubation, respectively. Samples which were incapable of lysing blood clot within 1 hour incubation were expressed as symbol (-).

Row | Structure (SMILES) | Anticomplementary activity (IC50) [1] [µg/mL] | Fibrinolytic activity [2]
1 | CCCCCCCCCCCCCCCC(=O)OC(CCCCCCCCCCCCCCC)CC(=O)N[C@@H](CCC(=O)O)C(=O)N[C@@H](CCC(=O)O)C(=O)O (stereo partly drawn) [19 (2), N-[N-(3-hexadecanoyloxyoctadecanoyl)-L-glutamyl]-L-glutamic acid] | 5.28 | –
2 | CCCCCCCCCCCCCCCC(=O)OC(CCCCCCCCCCCCCCC)CC(=O)N[C@H](C(=O)N[C@@H](CCC(=O)O)C(=O)O)C(C)C (stereo partly drawn) [Example 3, N-[N-(3-hexadecanoyloxyoctadecanoyl)-L-valyl]-L-glutamic acid] | 1.89 | ++ (blood clot was lysed in the presence of test compounds after 15 minutes (symbol: ++))
3 | CCCCCCCCCCCCCCCC(=O)OC(CCCCCCCCCCCCCC)C(=O)N[C@H](C(=O)N[C@@H](CCC(=O)O)C(=O)O)C(C)C (stereo partly drawn) [Example 6, N-[N-(2-hexadecanoyloxyhexadecanoyl)-L-valyl]-L-glutamic acid] | 0.49 | + (45 minutes (symbol: +) incubation)
4 | CCCCCCCCC=CCCCCCCCC(=O)OC(CCCCCCCC=CCCCCCCCC)CC(=O)N[C@H](C(=O)N[C@@H](CCC(=O)O)C(=O)O)C(C)C (stereo partly drawn) [Example 7, N-[N-[3-(9-octadecenoyloxy)-11-eicosenoyl]-L-valyl]-L-glutamic acid] | 3.4 | + (45 minutes (symbol: +) incubation)
5 | CCCCCCCCCCCCCCCC(=O)OC(CCCCCCCCCCCCCCC)CC(=O)N[C@H](C(=O)N[C@@H](CCC(=O)O)C(=O)O)[C@@H](C)O (stereo partly drawn) [Example 8 (2), N-[N-(3-hexadecanoyloxyoctadecanoyl)-L-threonyl]-L-glutamic acid] | 0.67 | ++ (blood clot was lysed in the presence of test compounds after 15 minutes (symbol: ++))
6 | CCCCCCCCCCCCCCCC(=O)OC(CCCCCCCCCCCCCCC)CC(=O)NCCC(=O)N[C@H](C(=O)N[C@@H](CCC(=O)O)C(=O)O)[C@@H](C)O (stereo partly drawn) [Example 10, N-[N-[N-(3-hexadecanoyloxyoctadecanoyl)-β-alanyl]-L-threonyl]-L-glutamic acid] | 1.00 | + (45 minutes (symbol: +) incubation)
7 | CCCCCCCCCCCCCCCC(=O)OC(CCCCCCCCCCCCCCC)CC(=O)NCCCCC(=O)N[C@@H](CCC(=O)O)C(=O)O (stereo partly drawn) [Example 14, N-[N-(3-hexadecanoyloxyoctadecanoyl)-5-aminopentanoyl]-L-glutamic acid] | 0.52 | –
8 | CCCCCCCCCCCCCCCC(=O)OC(CCCCCCCCCCCCCCC)CC(=O)NCCC(=O)N[C@@H](CC(=O)O)C(=O)O (stereo partly drawn) [Example 18, N-[N-(3-hexadecanoyloxyoctadecanoyl)-β-alanyl]-L-aspartic acid] | 0.34 | –
9 | CCCCCCCCCCCCCCCC(=O)OC(CCCCCCCCCCCCCCC)CC(=O)N[C@@H](CCCCN)C(=O)N[C@@H](CCC(=O)O)C(=O)O (stereo partly drawn) [Example 21, N-[N-(3-hexadecanoyloxyoctadecanoyl)-L-lysyl]-L-glutamic acid] | – | + (45 minutes (symbol: +) incubation)
10 | Br.Br.CCCCCCCCCCCCCCCC(=O)OC(CCCCCCCCCCCCCCC)CC(=O)N[C@@H](CCCCN)C(=O)N[C@@H](CCCCN)C(=O)O (stereo partly drawn) [Example 36, N-[N-(3-hexadecanoyloxyoctadecanoyl)-L-lysyl]-L-lysine dihydrogen bromide] | 9.5 | –
11 | CCCCCCCCCCCCCCCC(=O)OC(CCCCCCCCCCCCCCC)CC(=O)N[C@H](C(=O)NCCS(=O)(=O)O)C(C)C (stereo partly drawn) [Example 37, N-[N-(3-hexadecanoyloxyoctadecanoyl)-L-valyl]taurine] | 0.13 | + (45 minutes (symbol: +) incubation)
12 | CCCCCCCCCCCCCCCC(=O)OC(CCCCCCCCCCCCCCC)CC(=O)N[C@@H](CCC(=O)O)C(=O)N[C@H](C(=O)O)[C@@H](C)O (stereo partly drawn) [Example 39, N-[N-(3-hexadecanoyloxyoctadecanoyl)-L-glutamyl]-L-threonine] | 1.67 | –
13 | CCCCCCCCCCCCCCCC(=O)OC(CCCCCCCCCCCCCCC)CC(=O)N[C@H](C(=O)N[C@H](C(=O)O)[C@@H](C)O)[C@@H](C)O (stereo partly drawn) [Example 42, N-[N-(3-hexadecanoyloxyoctadecanoyl)-L-threonyl]-L-threonine] | 0.06 | ++ (blood clot was lysed in the presence of test compounds after 15 minutes (symbol: ++))
14 | CCCCCCCCCCCCCCCC(=O)OC(CCCCCCCCCCCCCCC)CC(=O)N[C@H](C(=O)N[C@@H](CCC(=O)OC)C(=O)OC)[C@@H](C)O (stereo partly drawn) [Example 43, dimethyl N-[N-(3-hexadecanoyloxyoctadecanoyl)-L-threonyl]-L-glutamate] | 30 | –
